Values of other authors as cited in patent US8747898B2, “Controlled release oral dosage form” (Andrx Pharmaceuticals, LLC, priority 1999, dated 2014).
Where a name gives a salt, the structure may show the parent alone.

Legend:
monoamine oxidase = conditions: in words
norepinephrine uptake = conditions: in words
[1] = in words
[2] = in words; remark: listed apart in the source

terminal T ½ (following single doses)	mean half-life of distributive phase (two-compartment model)	inhibition of monoamine oxidase (monoamine oxidase)	permeability [1]	solubility in water [2]	SMILES	blockade of norepinephrine uptake (norepinephrine uptake)
about 14 hours	3 to 4 h	does not inhibit			CC(NC(C)(C)C)C(=O)c1cccc(Cl)c1 (stereo not drawn) [bupropion]	weak blocker
			high permeability	highly soluble	CC(NC(C)(C)C)C(=O)c1cccc(Cl)c1 (stereo not drawn) [Bupropion hydrochloride, bupropion hydrochloride]	
